# Source: EP1276895B1, “METHOD FOR THE IDENTIFICATION OF ACTIVE SITE PROTEASE INACTIVATORS” (THE UNIVERSITY OF GEORGIA RESEARCH FOUNDATION, INC., priority 2000, dated 2001)
# Residues, ends and D or L forms follow the SMILES beside them. *: point of attachment. AFC = O=c1cc(C(F)(F)F)c2ccc(N*)cc2o1; Cbz = O=C(OCc1ccccc1)*; CH2F = FC*
# Tests used:
# [1] = tested on: purified Taenia solium cysteine protease; experiment: Substrate cleavage screen of AFC-linked synthetic substrates (Step II), purified protease; format: biochemical; details: 1 ug purified protease, 1 ug substrate, Citrate pH 4.9 with 0.01 M cysteine, 18 h, 37 °C
# Description: In this step, the most efficacious substrate for detection of the cysteine protease (high Kcat substrate) was determined in vitro along with those substrates which were not well cleaved (low kcat substrates). From this point forth, the following conditions refer to all assays: "assay buffer" refers to 0.4 M Citrate, pH 4.9 (the pH optima of the protease). Incubation time was 18 hours at 37°C. These conditions were determined by our preliminary data to be best for kinetic evaluation of the protease. […] The experiments were conducted in […] Borosilicate mini-culture tubes (Fisher Scientific), and a fluorometer (Turner) was employed for detection of AFC cleavage.
# Approximately 1 ug (or a proteolytically detectable amount) of the purified target cysteine protease was incubated individually, with 1 ug of each of the available substrates in 500 uL of assay buffer. During this setup, the substrate was pre-incubated in the assay buffer for a short period of time (20 minutes) in order to reach an equilibrated status before the addition of the protease. Cleavage assessments were based upon the property of the protease to cleave synthetic peptide substrates linked at the C-terminus to 7-Amino-4-Trifluoromethyl Coumarin (AFC) as previously described. AFC linked tripeptides, dipeptides, and monopeptides, (with a variety of permutations at P3-P1) were available from Enzyme Systems Products (Livermore, CA), and were used as the source of the subset. Following incubation of enzyme preparations overnight (18 h, 37 °C) with peptide in assay buffer (Citrate, pH 4.9, supplemented with 0.01 M cysteine), free AFC concentrations were measured fluorometrically (excitation 405 nm, emission 505 nm). The proteolytic cleavage released the AFC group, which was measurable as a free molecule by a standard fluorometer and converted into molar quantities, based upon a previously established standard curve. The simplicity of AFC detection by the fluorometer was a key factor which quickened and simplified the procedures.
# In the assay, 1 ug of the purified Taenia cysteine protease was added to a saturating amount of Z-Phe-Arg-AFC (4X10^-5 M) in assay buffer. The experiment was conducted in triplicate and repeated at least 5 times until we were certain that variability in AFC cleavage was not statistically significant.
# Vmax was calculated for the cleavage of substrates by the purified target protease and Vmax was calculated for substrates cleaved by the crude mix protease using conventional kinetic modeling calculations already described in the art.
# [2] = tested on: purified Taenia solium cysteine protease; experiment: Differential cleavage (selectivity) test, T. solium protease; format: biochemical
# Description: (§1) In order to perform the assay, the vehicle (for Step VI) or inhibitor (for Step IX) were incubated with the appropriate substrate in the correct assay buffer and allowed to equilibrate. Subsequently, the protease was added, and the assay was allowed to incubate for an appropriate time. The concentrations used in this experiment were as follows: Vehicle was set up at 4 X 10^-5 M in final assay buffer; Inhibitor was set up at 3 X 10^-10 M in the final assay buffer. Accordingly, the dosages employed should be the minimal amount of vehicle or inhibitor necessary to induce inhibition. […] Substrates were set up based upon the preferred substrate for cleavage of the particular enzyme.
# (§2) Positive controls were set up similarly as described for test controls, except that solvent was added in substitution for the inhibitor or vehicle (in a volume equal to the volume of inhibitor or vehicle addition). All of the inhibitors and vehicles could be dissolved in dimethylsulfoxide (DMSO), and therefore, this was the solvent of choice. Negative controls were set up by adding the inhibitor or vehicle and the preferred substrates in a tube without the protease. All potential non-proteolytic liberation of AFC was therefore controlled for in this tube (a feature which also insured stability of the AFC substrates, since these substrates will freely liberate AFC when unstable).
# (§3) All controls were set up in triplicate, and experiments were repeated a minimum of five times.
# (§4) Percent inhibition was calculated as: % Inhibition = ((AFC positive for ʺSIʺ-AFC negative for ʺSIʺ)-(AFC test-AFC negative for ʺSIʺ))/(AFC positive for ʺSIʺ-AFC negative for ʺSIʺ) × 100 [formula] In this preliminary test, we employed the following human-derived enzymes (with indicated mechanistic class): Cathepsin B (cysteine), Cathepsin L (cysteine), Cathepsin H (cysteine), Cathepsin D (aspartic) Trypsin (serine), the purified Taenia solium cysteine protease, and the Taenia solium crude mix. Cathepsin B was prepared in an assay buffer of 10 mM L-cysteine in 0.4 M Citrate buffer, pH 6.1, using Z-ARR-AFC as the cleavage substrate. Cathepsin L was prepared in an assay buffer of 10 mM L-cysteine in 0.4 M Citrate buffer, pH 5.5, using Z-FR-AFC as the cleavage substrate. Cathepsin H was prepared in an assay buffer of 10 mM L-cysteine in 0.15 M PBS buffer, pH 6.8, using L-R-AFC as the cleavage substrate. Cathepsin D was prepared in an assay buffer of 0.15 M PBS, pH 7.1, using Z-RGFFP-AFC as the cleavage substrate. Trypsin was prepared in an assay buffer of 0.15 M PBS, pH 8.0, supplemented with 100 mM CaCl2 and with Z-R-AFC as the cleavage substrate. Enzyme was incubated so that it was at least 50 times less than the concentration of substrate in order to insure saturating conditions.
# [3] = molecular target: T1, Cathepsin H (cysteine) (Homo sapiens, UniProt P09668); experiment: Differential cleavage (selectivity) test, Cathepsin H; format: biochemical; details: 0.15 M PBS pH 6.8, 10 mM L-cysteine, substrate L-R-AFC; for inhibition at 0.0003 µM: inhibitor 3 X 10^-10 M
# T1 sequence (P09668 98-335): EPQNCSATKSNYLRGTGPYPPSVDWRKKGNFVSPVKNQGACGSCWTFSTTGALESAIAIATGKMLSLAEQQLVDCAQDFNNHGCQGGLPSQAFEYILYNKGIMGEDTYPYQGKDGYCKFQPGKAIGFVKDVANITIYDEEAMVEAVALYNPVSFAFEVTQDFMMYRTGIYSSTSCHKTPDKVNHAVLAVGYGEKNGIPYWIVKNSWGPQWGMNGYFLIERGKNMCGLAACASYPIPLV
# Description: as §1, §2, §3, §4
# [4] = molecular target: Cathepsin D (aspartic) (Homo sapiens, UniProt P07339); experiment: Differential cleavage (selectivity) test, Cathepsin D; format: biochemical; details: 0.15 M PBS pH 7.1, substrate Z-RGFFP-AFC; for inhibition at 0.0003 µM: inhibitor 3 X 10^-10 M
# Description: as §1, §2, §3, §4
# [5] = tested on: normal BALB/c mouse splenocytes; experiment: Mouse splenocyte proliferation (3H-thymidine incorporation) with inhibitor alone or inhibitor and Con-A; format: cell-based; details: for proliferative response of splenocytes (3H-thymidine incorporation): inhibitor alone; for responsiveness of splenocytes to Con-A: inhibitor and Con-A; for toxicity to normal BALB/c mouse splenocytes in vitro: preliminary results
# Sequence of Cathepsin D (aspartic) (P07339 65-412): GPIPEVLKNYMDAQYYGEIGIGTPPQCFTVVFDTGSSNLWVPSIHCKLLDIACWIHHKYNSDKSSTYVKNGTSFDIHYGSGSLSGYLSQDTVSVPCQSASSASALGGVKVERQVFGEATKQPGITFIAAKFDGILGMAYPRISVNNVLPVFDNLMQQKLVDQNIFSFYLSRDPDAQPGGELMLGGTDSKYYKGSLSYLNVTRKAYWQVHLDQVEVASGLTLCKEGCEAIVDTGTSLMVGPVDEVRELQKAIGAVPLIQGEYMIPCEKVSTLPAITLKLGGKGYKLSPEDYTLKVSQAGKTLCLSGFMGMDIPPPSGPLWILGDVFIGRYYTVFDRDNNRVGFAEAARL
compound,measurement,setting,value
"CC(C)C[C@H](NC(=O)OCc1ccccc1)C(=O)N[C@@H](CC(C)C)C(=O)N[C@@H](CC(C)C)C(=O)Nc1ccc2c(C(F)(F)F)cc(=O)oc2c1 [Z-LLL-AFC, Z-Leu-Leu-Leu-AFC] (Cbz-Leu-Leu-Leu-{AFC})",cleavage of AFC-linked substrate (Vmax),[1],noncleavable
same,% Inhibition,[2]; vehicle 4 X 10^-5 M,68%
same,inhibition at 40 µM,[3]; vehicle 4 X 10^-5 M,0%
same,inhibition at 40 µM,[4]; vehicle 4 X 10^-5 M,0%
"CC(C)C[C@H](NC(=O)[C@H](CC(C)C)NC(=O)[C@H](CC(C)C)NC(=O)OCc1ccccc1)C(=O)CF [Z-LLL-FMK, Z-Leu-Leu-Leu-fluoromethylketone] (Cbz-Leu-Leu-Leu-CH2F)",% Inhibition,[2]; inhibitor 3 X 10^-10 M,98%
same,inhibition at 0.0003 µM,[3],0%
same,inhibition at 0.0003 µM,[4],0%
same,proliferative response of splenocytes (3H-thymidine incorporation),[5],do not induce a proliferative response
same,responsiveness of splenocytes to Con-A,[5],unaffected
same,responsiveness of splenocytes to Con-A,[5]; listed as LLL-FMK,do not affect the responsiveness
same,toxicity to normal BALB/c mouse splenocytes in vitro,[5],nontoxic
"CC(C)C[C@H](NC(=O)OCc1ccccc1)C(=O)N[C@@H](CC(C)C)C(=O)N[C@@H](Cc1ccc(O)cc1)C(=O)Nc1ccc2c(C(F)(F)F)cc(=O)oc2c1 [Z-LLY-AFC, Z-Leu-Leu-Tyr-AFC] (Cbz-Leu-Leu-Tyr-{AFC})",cleavage of AFC-linked substrate (Vmax),[1],noncleavable
same,% Inhibition,[2]; vehicle 4 X 10^-5 M,70%
same,inhibition at 40 µM,[3]; vehicle 4 X 10^-5 M,0%
same,inhibition at 40 µM,[4]; vehicle 4 X 10^-5 M,0%
"CC(C)C[C@H](NC(=O)OCc1ccccc1)C(=O)N[C@@H](CC(C)C)C(=O)N[C@@H](Cc1ccc(O)cc1)C(=O)CF [Z-LLY-FMK, Z-Leu-Leu-Tyr-FMK] (Cbz-Leu-Leu-Tyr-CH2F)",% Inhibition,[2]; inhibitor 3 X 10^-10 M,62%
same,inhibition at 0.0003 µM,[3],0%
same,inhibition at 0.0003 µM,[4],0%
same,proliferative response of splenocytes (3H-thymidine incorporation),[5],do not induce a proliferative response
same,responsiveness of splenocytes to Con-A,[5],unaffected
same,responsiveness of splenocytes to Con-A,[5]; listed as LLY-FMK,do not affect the responsiveness
same,toxicity to normal BALB/c mouse splenocytes in vitro,[5],nontoxic
Mu-Leu-Tyr-AFC [Mu-LY-AFC],cleavage of AFC-linked substrate (Vmax),[1],not cleaved
same,cleavage of AFC-linked substrate (Vmax),[1]; listed as M-LY-AFC,noncleavable
same,% Inhibition,[2]; vehicle 4 X 10^-5 M,75%
same,% Inhibition,"[3]; vehicle 4 X 10^-5 M, 40 µM",0%
same,% Inhibition,"[4]; vehicle 4 X 10^-5 M, 40 µM",0%
